Among the data in PubChem BioAssay AID463074 (Broad Institute, 2010) are AC50 values, retold here.

Calls of active or inactive are those of the source.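 The calls were made as follows: active = AC50 no more than tenfold above the top dose tested, or full inhibition at every dose with a flat fit (cut at about 19 µM in these data); inconclusive = flat curve fit with inhibition between 30% and 70%, or poor fit; inactive = AC50 more than tenfold above the top dose tested.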

This assay concerns HMLE_sh_eGFP viability, CellTiter-Glo luminescence, 72 h. The assay can be described thus: cytotoxicity in HMLE control line with eGFP shRNA, dose response, counter-screen for HMLE_sh_ECad selective toxicity project, cell-based, HMLE_sh_eGFP, luminescence (AID 463074).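 Also: potency for loss of viability as luminescence drops below DMSO wells.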 Background: Counterscreens check selectivity or assay interference.
One may read the AC50 as the concentration at which the activity in the assay is half-maximal. Turning to `O=C(CC1NCCc2ccccc21)Nc1ccc(Oc2ccccc2)cc1` (centres undefined), the AC50 is 7.46 µM.

As to `Cc1cc(C)c2sc(N(CCCN(C)C)C(=O)c3ccc(S(=O)(=O)N4CCCc5ccccc54)cc3)nc2c1`, the AC50 was 3.73 µM.

For the compound `CN(C)CCNC=C(C(=O)Nc1ccc(Cl)cc1Cl)C(=O)Nc1ccc(Cl)cc1Cl`, the AC50 was 9.23 µM.

On to `OC(CNCCc1ccc(C(F)(F)F)cc1)COc1ccc2ccccc2c1` (centres undefined), for which the AC50 is 4.98 µM.

In the case of `N#Cc1c(-c2ccccc2)cc(-c2ccccc2)nc1SCCC(=O)O`, the AC50 is 2.41 µM.

Regarding `C/C(=N\NC(=O)c1cc(C)nc2ccccc12)c1ccccn1`, the AC50 was 13.1 µM.

Regarding `COc1ccc2sc(-c3ccc(SC)cc3)c(C#CCO)c2c1`, the AC50 is 8.45 µM.

Regarding `O=C(/C(=C\c1ccccc1)c1nc2ccccc2[nH]1)c1ccc(Cl)cc1`, the AC50 was 3.27 µM.

Take `Oc1cccc(C(O)CNCc2ccc(OCc3ccc(Cl)cc3Cl)cc2)c1` (centres undefined): the AC50 is 7.09 µM.

Consider `O=C(CCc1ccc(Oc2cc([N+](=O)[O-])cc([N+](=O)[O-])c2)cc1)N1CCCCCC1`, for which the AC50 is 8.85 µM.

For `Cc1cccc(CN2CCN(C(c3ccccc3)c3ccc(Cl)cc3)CC2)c1` (centres undefined), the AC50 is 4.76 µM.

For `COc1cc(/C=C(\C#N)c2ccccn2)ccc1OCC(=O)Nc1ccc(Br)cc1`, the concentration at half-maximal activity (AC50) is 2.7 µM.

On to `Cc1ccccc1CSc1ccc(-c2ccc3c(c2)OCO3)nn1`, for which the AC50 was 7.5 µM.

For the compound `CCC1=NN(C(=O)c2ccc(Cl)cc2)C(O)(c2ccc(C)cc2)C1` (centres undefined), the AC50 was 7.99 µM.

On to `O=C(CSc1nc2nc(-c3cccs3)cc(C(F)(F)F)c2c(=O)[nH]1)Nc1ccc(F)c(F)c1`, for which the AC50 was 2.56 µM.

On to `Cc1cccc(CN2C(=O)[C@@H]3Cc4c([nH]c5ccccc45)C(C)(C)N3C2=O)c1`, for which the AC50 was 12.3 µM.

As to `O=C1c2ccccc2NC(c2ccc(-c3cccc(Cl)c3)o2)N1O` (centres undefined), the AC50 was 4.85 µM.

As for `O=[N+]([O-])c1ccc(N2N=C(c3ccccc3)CC2c2ccccc2O)cc1` (centres undefined), the half-maximal activity concentration (AC50) was 2.51 µM.

For `C[C@]12CCC(O)CC1CCC1C2CC[C@]2(C)C(c3cc(C(F)(F)F)n[nH]3)CCC12` (some centres undefined), the AC50 was 1.78 µM.

Take `CC1(C)Cc2ccccc2/C(=C/C(=O)c2ccccc2)N1`: the AC50 is 7.27 µM.

As to `O=[N+]([O-])c1ccc(Cl)c(/C=N/n2c(C3CCCCC3)n[nH]c2=S)c1`, the AC50 was > 19.5 µM (inactive).

As to `CCCSc1nnc(CSc2nc3ccccc3s2)n1-c1ccccc1`, the AC50 is 3.01 µM.

Take `O=C(c1c[nH]c2ccccc12)C(Cl)c1ccccc1` (centres undefined): the AC50 was 11.2 µM.

Regarding `Cc1ccc(SC[C@H](C)CN2CC[C@H](C(C)(C)C)CCC2=O)cc1`, the AC50 is 6.63 µM.

For the compound `C=C(C)COc1ccc(-c2[nH]ncc2Oc2ccc(OC)cc2)c(O)c1`, the AC50 was 5.99 µM.

Consider `CCCOC(=O)C(=O)NNc1ccccc1`, for which the half-maximal activity concentration (AC50) was 1.81 µM.

In the case of `CC(C)(C)c1ccc(Cn2nnc3c(=O)[nH]c(C4CCCN(C(=O)c5cccs5)C4)nc32)cc1` (centres undefined), the AC50 is 14.6 µM.

In the case of `Cc1cccc(C(=O)Nc2ccc(C(=O)Nc3ccc(O)cc3)cc2)c1`, the concentration at half-maximal activity (AC50) was 5.08 µM.

For the compound `C=C(C(=O)c1ccccc1)C(CC(=O)c1ccccc1)c1ccccc1` (centres undefined), the AC50 was 3.6 µM.

For the compound `C[C@@H]1CN([C@@H](C)CO)C(=O)c2cc(NC(=O)Nc3ccc(F)cc3)ccc2O[C@@H]1CN(C)Cc1ccc(Oc2ccccc2)cc1`, the AC50 is 3.48 µM.

As for `CC(=O)Nc1ccc(OCC(O)CN2CCN(c3ccc(C)c(Cl)c3)CC2)cc1` (centres undefined), the AC50 is 8.97 µM.

As to `O=C(c1ccc(C#CC2(O)CCCCC2)cc1)N1CCN(C(c2ccccc2)c2ccccc2)CC1`, the AC50 is 2.52 µM.

Take `COC(=O)c1c(NC(=O)/C=C/c2ccc3c(c2)OCO3)sc(C)c1C`: the AC50 was 1.7 µM.

On to `CC(C)c1ccc(NC(=O)c2snc3ccc(Cl)cc23)cc1`, for which the AC50 was 3.62 µM.

Consider `CC(=O)Oc1ccc(-c2ccc(C(=O)Nc3cccc(S(=O)(=O)N4CCOCC4)c3)cc2)cc1`, for which the AC50 was 1.46 µM.

In the case of `CN(C)CCNC(=O)c1sc2nc(-c3ccccc3)cc(C(F)(F)F)c2c1N`, the half-maximal activity concentration (AC50) was 5.23 µM.

As to `CCOC(=O)/C(=N/Nc1ccccc1)c1csc(Nc2ccccc2)n1`, the AC50 is 3.69 µM.

`COc1ccc2c(c1)-c1nc(NC(=O)c3cccs3)sc1CC2`: the AC50 is 11.3 µM.

As for `Cc1cccc(-c2cc3nc(C)cc(N4CC(C)CC(C)C4)n3n2)c1` (centres undefined), the AC50 is 6.87 µM.

For `CCCCCc1nc2c(c(=O)c3ccccc3n2C)c(=O)n1C1CCCCCC1`, the AC50 is 2.97 µM.

With `Oc1ccc(N=Nc2ccc3ccccc3c2)cc1`, the AC50 was 7.43 µM.

With `CNC(=O)NC(=O)C(C)OC(=O)c1c2c(nc3ccccc13)/C(=C/c1cccs1)CC2` (centres undefined), the AC50 is 4.01 µM.

As for `Nc1ccc(N=Nc2ccccc2)c2ccccc12`, the AC50 was 12.6 µM.

In the case of `c1ccc(-c2cc3c(NCC4COc5ccccc5O4)ncnc3s2)cc1` (centres undefined), the AC50 was 4.99 µM.

In the case of `COc1ccc(N=N/C(=C\O)C(=O)c2cccs2)cc1`, the AC50 is 5.35 µM.

Turning to `O=C(N/N=C/c1c[nH]c2ccccc12)C1CC1(c1ccccc1)c1ccccc1` (centres undefined), the AC50 was 7.04 µM.

For `S=C(NCC1CCCCC1)Nc1ccc(Oc2ccccc2)cc1`, the AC50 was 5.41 µM.

Turning to `COc1cc(N/N=C(\C)c2ccc(O)c(C)c2)nc(-c2ccccc2)n1`, the concentration at half-maximal activity (AC50) is 4.75 µM.

For the compound `N#C/C(=C\c1c[nH]c2ccc(Br)cc12)c1ccccn1`, the concentration at half-maximal activity (AC50) was 10.3 µM.

`CCC/C=C(\CCC)C(NS(=O)(=O)c1ccc(C(F)(F)F)cc1)c1ccccc1` (centres undefined): the AC50 is 3.93 µM.

In the case of `CCCCCCSc1cccc(-c2nc3cc(C)ccn3c2NC2CCCCC2)c1`, the AC50 was 9.77 µM.

Take `O=C(O)c1cccc(N/N=C(\N=Nc2ccccc2)c2ccccc2)c1`: the AC50 is 4.25 µM.

With `O=C(Nc1ccc(Cl)c(Cl)c1)O/N=C/c1ccncc1`, the AC50 was 10.1 µM.

As to `O=C(c1cc(-c2cccc(O)c2)on1)N1CCN(C(c2ccccc2)c2ccccc2)CC1`, the AC50 is 3.11 µM.

For the compound `O=C1CC(=C(c2ccccc2)c2ccccc2)C(=O)N1CCCCN1CCN(c2cccc(Cl)c2)CC1`, the half-maximal activity concentration (AC50) was 2.02 µM.

Consider `CC1=[N+](C)c2ccc3ccccc3c2C1(C)C`, for which the AC50 was > 19.5 µM (inactive).

Take `CC(C)N1CCc2c(sc(NC(=O)c3cc(-c4cccs4)nc4ccccc34)c2C(N)=O)C1`: the concentration at half-maximal activity (AC50) was 12.9 µM.

Regarding `COc1ccc(/C=C/C(=O)c2c(O)n(CCC3=CCCCC3)c(=O)[nH]c2=O)cc1`, the AC50 was 3.33 µM.

Turning to `Fc1ccccc1COc1ccc(-c2nnn(Cc3ccccc3F)n2)cc1`, the AC50 was 4.81 µM.

Regarding `COc1cc(/C=C/C(=O)c2ccc(NS(=O)(=O)c3ccc(C)cc3)cc2)cc(OC)c1O`, the AC50 is 4.11 µM.

Consider `O=Cc1ccc(Oc2cc(-c3ccccc3)nc(-c3ccccc3)n2)cc1`, for which the AC50 is 7.03 µM.

In the case of `Clc1ccc2c(N/N=C/c3ccc(Br)cc3)ccnc2c1`, the AC50 is 7.56 µM.

Regarding `O=C(Nc1nc(-c2cccc3ccccc23)cs1)c1ccc2c(c1)S(=O)(=O)c1ccccc1C2=O`, the AC50 is 11.3 µM.

As for `O=c1cc(N2CCCCC2)c(-c2ccccc2)nn1Cc1ccc(Cl)cc1`, the AC50 was 3.77 µM.

Regarding `CCn1c2ccccc2c2cc(NC(=O)c3cc(OC)cc(OC)c3)ccc21`, the concentration at half-maximal activity (AC50) was 0.258 µM.

Consider `O=C(C#Cc1ccccc1)Nc1cccc(F)c1`, for which the AC50 was 3.43 µM.

As to `Cc1cc(=O)[nH]c(N/N=C/c2ccccn2)n1`, the half-maximal activity concentration (AC50) was 1.53 µM.

On to `CCOc1ccc(/C=C/C(O)=C2/C(=O)N(C)C3(C)CC2c2ccccc2O3)cc1OC` (centres undefined), for which the AC50 was 5.95 µM.

As for `N#CC1=C(SCC(=O)c2ccc(Br)cc2)NC2=C(C(=O)CCC2)C1c1ccco1` (centres undefined), the AC50 was 2.21 µM.

On to `Cc1ccc(CCC(=O)Nc2ncc(Cc3cc(Cl)ccc3Cl)s2)o1`, for which the AC50 was 13.6 µM.

In the case of `COc1cc(-c2nc(-c3ccc(NC(=O)c4ccc(Br)o4)cc3)no2)cc(OC)c1OC`, the AC50 is 3.5 µM.

Consider `CC(=O)Nc1ccc(N=Cc2c(O)c(C(=O)Nc3ccccc3)cc3ccccc23)cc1`, for which the AC50 was 4.21 µM.

For `COc1cccc(/C=N/NC(=O)c2ccc(-c3ccccc3)cc2)c1O`, the AC50 is 3.33 µM.

As for `O=C1CC(N(CCc2ccccc2)C(=S)Nc2cc(Cl)ccc2Cl)C(=O)N1c1c(Cl)cccc1Cl` (centres undefined), the AC50 was > 19.5 µM (inactive).

With `COc1cc(NS(C)(=O)=O)ccc1Nc1c2ccccc2nc2ccccc12`, the AC50 is 2.11 µM.

In the case of `O=C(Nc1ccc(O)cc1)c1ccc(NC(=O)c2cccs2)cc1`, the AC50 was 10 µM.

In the case of `O=[N+]([O-])c1ccccc1-c1ccc(C(=S)N2CCN(c3ccccc3)CC2)o1`, the AC50 was > 19.5 µM (inactive).

Regarding `Cc1ccc(Oc2c(C(N)=O)cc([N+](=O)[O-])cc2[N+](=O)[O-])cc1`, the AC50 is 3.84 µM.

`O=S(=O)(c1cnc(Cl)c(Br)c1)N1CCc2ccccc21`: the AC50 is 6.77 µM.

Take `Cn1c(-c2ccsc2)c(-c2cccs2)c2cc(Br)ccc21`: the AC50 is 5.92 µM.

On to `CCOc1ccccc1N(C(=O)Nc1ccc(Cl)cc1)C1=NCCS1`, for which the AC50 is > 19.5 µM (inactive).

Take `CCn1c(C(=O)O)c(CC(=O)Nc2cccc(C(F)(F)F)c2)c2ccccc21`: the AC50 was 14.6 µM.

As to `Cc1cccc(NC(=O)CCC(=O)N/N=C/c2ccc(O)cc2O)c1`, the AC50 was 10.6 µM.

For the compound `CC(C)C[C@@H](CO)N(Cc1ccccc1)S(=O)(=O)N(Cc1ccccc1)[C@@H](CO)CC(C)C`, the half-maximal activity concentration (AC50) was 3.87 µM.

With `O=S(=O)(c1ccc(Cl)cc1)N1CCN(Cc2ccc(O)c3ncccc23)CC1`, the AC50 is 6.21 µM.

`CC[C@@H]1Cc2cc(O)ccc2C2=C1c1ccc(O)cc1C[C@H]2CC`: the AC50 was 4.15 µM.

For `COc1cc2c(-c3ccc(O)cc3)nc3c(c(C)nn3-c3ccccc3)c2cc1OC`, the concentration at half-maximal activity (AC50) was 3.92 µM.

For `Oc1ccc(/C=N/Nc2nc(-c3ccc(Cl)cc3)cc(C(F)(F)F)n2)cc1`, the AC50 is 6.82 µM.

Turning to `CCn1c(C)nc2cc(C(=O)N/N=C/c3cccc(OC)c3O)ccc21`, the concentration at half-maximal activity (AC50) was 6.95 µM.

As for `O=C(CN1CCCCCC1)Nc1ccccc1Oc1ccccc1`, the AC50 was 0.808 µM.

As to `O=S(=O)(NC1CC(NS(=O)(=O)OCC(Cl)(Cl)Cl)C2CCCCC12)OCC(Cl)(Cl)Cl` (centres undefined), the AC50 is 1.47 µM.

In the case of `CC(C)CC(=O)c1c(O)c(C=O)c(O)c2c1O[C@@]1(C)[C@@H](C2)C[C@H]2C[C@@H]1C2(C)C`, the AC50 was 6.32 µM.

Turning to `CCc1ccc(CNC(=O)C2CCN(c3nnc(C)c4c(C)n(-c5ccc(C)cc5)nc34)CC2)cc1`, the AC50 is 4.14 µM.

`Cc1ccc(N/N=C/c2c(O)n(-c3ccccc3)c(=O)[nH]c2=O)cc1`: the AC50 was 3.87 µM.
